Here are results for 14 compounds from patent publication US20260274794A1, “COMPOUNDS, COMPOSITIONS, AND METHOD OF INHIBITING TAU PROTEIN AND ALPHASYNUCLEIN AGGREGATION” (Purdue Research Foundation, priority 2023, published 2026).

Each structure is given as a SMILES string.

Holding throughout (assay type): biochemical
One assay has as its target T1, α-synuclein (α-syn) (Homo sapiens, UniProt P37840).
T1 construct: purchased rPeptide, LLC (Watkinsville, GA)
Nature of the assay: Thioflavin T (ThT) fluorescence assay of α-syn fibril formation. The following applies: compound 100 μM; ThT fluorescence intensity at plateau phase, control = 100%. The method, then: (§1) ThT fluorescence is routinely established assay to follow the kinetics of α-syn fibril formation with different drug candidate treatments. Compounds were first tested at a final of concentration of 100 μM and α-syn and 2N4R tau were prepared at 2 μM and 6 μM, respectively. Compounds with highest anti-fibrillary activity were tested at 3.125, 6.25, 12.5, 25, 50, and 100 μM to obtain dose-response curves.
For the α-syn ThT assay, ThT was used at a final concentration of 20 μM. α-Syn was dissolved in 20 mM Tris-HCl (pH 7.4) supplemented with 100 mM NaCl to a stock solution of 280 μM (1 mg/250 μL) prior to resuspension in ThT buffer to obtain a final concentration of 2 μM. Compounds and ThT were first added to the wells. The kinetics of fibril formation begin when the α-syn was solubilized in the ThT buffer (10 mM PBS buffer (pH 7.4), supplemented with 0.5 mM SDS and 300 mM NaCl) and added to a non-treated black 96 well microplate with a transparent flat bottom. Each well was filled with a maximum volume of 150 μL buffer with one 3 mm borosilicate bead. The background fluorescence signal consisted of ThT in buffer and 0.25% DMSO without α-syn. The excitation and emission wavelengths were set at 440 and 485 nm, respectively, with a Synergy HT multi-mode microplate reader (BioTek, Winooski, VT). Measurements were taken at 37° C. every 20 minutes over 50 hours of shaking prior to reading the plate. Samples were measured in three replicates and the experiments were repeated three times using different α-syn stock solutions. For each time point, the background fluorescence signal was subtracted. Arbitrary units of fluorescence were calculated from the mean values normalized against the maximum value in each completed assay. Arbitrarily, the maximum value (100%) for the fluorescence intensity was established for α-syn.
Compounds were tested at 100 μM with α-syn at 6 μM, resulting in a molar ratio of approximately 1:16 (protein:compound). The plateau phase of sigmoidal kinetics is of particular interest because it is the phase in which mature fibrils form and where aggregation and disaggregation are at equilibrium with each other; therefore, the fluorescence intensity between multiple compounds at the plateau phase can be compared to identify the compounds with the most promising anti-aggregation activity (Table 1, column α-syn ThT %). […] Compound 17 was the best representative of the 5-aminoindole series and moved to the tier-2 assays, even though the resulting ThT percentage of fluorescence intensity was 10% higher than the cut off. These compounds were then tested on tau 2N4R ThT fluorescence assays.

The target in assay [1] is T2, tau isoform 2N4R (Homo sapiens, UniProt P10636).
T2 construct: made in house; host or cells: E. coli BL21 (DE3), vector pRK172
Nature of the assay: ThT fluorescence assay of tau isoform 2N4R fibril formation. The following applies: compound 100 μM, tau 2N4R 6 μM. As to the method:
as §1
Concerning the non-phosphorylated tau (isoform 2N4R) kinetics of fibril formation, ThT was performed with the tau protein solution was diluted to a final concentration of 6 μM in PBS (pH 7.4) supplemented with 1.5 μM heparin, 20 μM ThT, 2.5 mM DTT, and 100 μM compound. Aliquots of the diluted protein solution (100 μL each) were pipetted into the wells of a 96-well plate, and a Teflon ball was added to each well. The plate was incubated at 37° C. with constant shaking at 1,000 rpm in a Tecan Stark plate reader. ThT fluorescence was measured every 15 min with excitation and emission wavelengths of 440 nm and 480 nm, and the data were plotted using GraphPad Prism.
Various structural analogs were first tested at a final concentration of 100 μM in the presence of tau 2N4R at 6 μM. Compounds 2, 4-8, and 17 were pre-selected with α-syn ThT assay prior to evaluation on the tau isoform 2N4R.

For assay [2], the target named is T2, tau isoform 2N4R. Put plainly: PICUP assay of tau isoform 2N4R oligomerization. The following applies: compound 50 μM. As to the method:
To force the oligomerization by cross-linking, α-syn (from Rpeptide, LLC) and tau isoform 2N4R were diluted in 10 mM phosphate buffer (pH 7.4) to reach a final concentration of 10 μM [27]. Different compounds were added to the protein solution at a final concentration of 50 μM, resulting in a molar ratio of 1:5. To confirm the gradual effect of the compounds on the inhibition of α-syn oligomerization, compounds were tested at final concentration of 3.125, 6.25, 12.5, 25, and 50 μM. The controls consisted of samples without light exposition, without Ru(bpy), and without compound (i.e., 0.125% DMSO). The cross-linking reaction was initiated by the addition of 2 μL of Ru(bpy) (300 μM final concentration) and 2 μL ammonium persulfate (6 mM final concentration). Samples were irradiated immediately. Light exposition was of 1 second duration for ca-syn and 3 second duration for tau isoform 2N4R, with a 53 W (120 V) incandescent lamp installed in a homemade dark-box. Each tube contained a final volume of 20 μL. After irradiation, 8.3 μL. of Lammeli loading buffer containing 15% β-mercaptoethanol was immediately added to the solution, followed by incubation at 95° C. for 10 minutes. The cross-linked samples were separated on a 16% SDS-Page gel and visualized by Coomassie blue staining.
One end point used to verify the propensity of misfolded protein in the drug discovery field is the inhibition of oligomer formation. The photo-induced cross-linking of unmodified proteins (PICUP) assay was used to investigate α-syn (60 μM) and tau isoform 2N4R (6 μM) oligomerization in the presence of eight amide compounds (2, 4, 5, 6, 7, 8, 13, and 17 at 50 μM, i.e., ~molar ratio 1:8 for tau). After being subjected to short light exposure, α-syn and tau were cross-linked and Coomassie-stained resolved as a higher molecular weight compared to control (0.125% DMSO). […] Compound 13 was used as a negative control for the α-syn PICUP.
PICUP assays were performed with different concentrations (50 μM, 25 μM, 12.5 μM, 6.25 μM, 3.125 μM; control=0.125% DMSO) for each lead compound.

T2 sequence (P10636 1-441 isoform P10636-8): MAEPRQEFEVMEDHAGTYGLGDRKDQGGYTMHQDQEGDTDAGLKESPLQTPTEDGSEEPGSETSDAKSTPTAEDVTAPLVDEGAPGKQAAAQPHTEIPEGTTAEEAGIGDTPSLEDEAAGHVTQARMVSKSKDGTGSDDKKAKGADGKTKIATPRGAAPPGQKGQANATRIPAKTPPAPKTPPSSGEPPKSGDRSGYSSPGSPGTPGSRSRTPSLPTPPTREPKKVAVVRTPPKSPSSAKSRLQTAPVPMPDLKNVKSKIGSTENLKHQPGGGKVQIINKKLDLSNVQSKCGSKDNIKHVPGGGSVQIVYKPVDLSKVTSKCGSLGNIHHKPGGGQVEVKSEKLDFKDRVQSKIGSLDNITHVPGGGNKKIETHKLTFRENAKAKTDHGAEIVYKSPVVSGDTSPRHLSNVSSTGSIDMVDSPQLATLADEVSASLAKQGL

Usually remaining activity stands for the signal under treatment as a percentage of the control signal. For `Nc1cccc(C(=O)Nc2ccc3[nH]ccc3c2)c1` [Compound 17, 3-amino-(1H-indol-5-yl)benzamide], the remaining activity at 100 µM on α-synuclein (α-syn) came to 40%.

For `O=C(Nc1ccc2[nH]ccc2c1)c1cccs1` [Compound 9, N-(1H-indol-5-yl)thiophene-2-carboxamide], the remaining activity at 100 µM at α-synuclein (α-syn) stood at 40.5 ± 2.3%.

As for `O=C(Nc1ccc2[nH]ccc2c1)c1ccccc1` [Compound 10, N-(1H-indol-5-yl)benzamide], at α-synuclein (α-syn), the remaining activity at 100 µM worked out at 102 ± 13.3%.

Turning to `O=C(Nc1ccc2[nH]ccc2c1)c1ccc(Cl)cc1` [Compound 12, 4-chloro-N-(1H-indol-5-yl)benzamide], the remaining activity at 100 µM at α-synuclein (α-syn) turned out to be 67.5 ± 16.3%.

As for `O=C(Nc1ccc2c(c1)Cc1ccccc1-2)c1ccc(Cl)cc1` [Compound 18, 4-chloro-N-(9H-fluoren-2-yl)benzamide], at α-synuclein (α-syn), the remaining activity at 100 µM stood at 69.4% and the “α-Syn ThT%” value is given as 69.4 ± 6.70%.

On to `COc1cccc(C(=O)Nc2ccc3[nH]ccc3c2)c1` [Compound 11, N-(1H-indol-5-yl)-3-methoxybenzamide], for which, on α-synuclein (α-syn), the remaining activity at 100 µM was 48.6 ± 2.6%.

Consider `O=C(Nc1cccc2[nH]ccc12)c1cccs1` [Compound 1], for which the remaining activity at 100 µM at α-synuclein (α-syn) was 64%.

For `O=C(Nc1cccc2[nH]ccc12)c1ccc(Cl)cc1` [Compound 4, 4-chloro-N-(1H-indol-4-yl)benzamide], the remaining activity at 100 µM on α-synuclein (α-syn) was at most 30%. The “effect on tau isoform 2N4R fibril formation (ThT)” value (“effect” for short) at tau isoform 2N4R [1] is recorded as “good inhibitory effect”.

As to `N#Cc1ccc(C(=O)Nc2cccc3[nH]ccc23)cc1` [Compound 7, 4-cyano-N-(1H-indol-4-yl)benzamide], the remaining activity at 100 µM at α-synuclein (α-syn) is at most 30%. For the same compound, the “effect” value at tau isoform 2N4R [1] is “good inhibitory effect”.

As to `N#Cc1ccc(C(=O)Nc2ccc3[nH]ccc3c2)cc1` [Compound 15, 4-cyano-N-(1H-indol-5-yl)benzamide], at α-synuclein (α-syn), the remaining activity at 100 µM amounted to 62.7 ± 4.1%.

Consider `O=C(Nc1cccc2[nH]ccc12)c1ccccc1Cl` [Compound 5, 2-chloro-N-(1H-indol-4-yl)benzamide], for which, at α-synuclein (α-syn), the remaining activity at 100 µM is at most 30%. The “effect” value at tau isoform 2N4R [1] is reported as “good inhibitory effect”.

For the compound `O=C(Nc1cccc2[nH]ccc12)c1ccc(C(F)(F)F)cc1` [Compound 6, N-(1H-indol-4-yl)-4-(rifluoromethyl)benzamide], the “tau isoform 2N4R oligomerization (PICUP crosslinking)” value at tau isoform 2N4R [2] was “strongest oligomer band”. On α-synuclein (α-syn), the remaining activity at 100 µM is at most 30%. Moreover, on tau isoform 2N4R [1], the “effect” value was “weaker anti-fibrilization effect”.

Regarding `O=C(Nc1ccc2[nH]ccc2c1)c1ccc(F)cc1` [Compound 16, 4-fluoro-N-(1H-indol-5-yl)benzamide], the remaining activity at 100 µM at α-synuclein (α-syn) amounted to 48.5 ± 1.7%.

For the compound `COc1cccc(C(=O)Nc2cccc3[nH]ccc23)c1` [Compound 3], on α-synuclein (α-syn), the remaining activity at 100 µM was 43%.
